ChEMBL document CHEMBL4402510, “Caprazamycins: Promising lead structures acting on a novel antibacterial target MraY” (Eur J Med Chem, 2019)
Values after ≈ are worked out from the molar mass of the structure shown.

Assays:
[1] = target: T1, Phospho-N-acetylmuramoyl-pentapeptide-transferase (Aquifex aeolicus (strain VF5), UniProt O66465); test: Inhibition of MraY in Aquifex aeolicus
T1 sequence (O66465 whole entry): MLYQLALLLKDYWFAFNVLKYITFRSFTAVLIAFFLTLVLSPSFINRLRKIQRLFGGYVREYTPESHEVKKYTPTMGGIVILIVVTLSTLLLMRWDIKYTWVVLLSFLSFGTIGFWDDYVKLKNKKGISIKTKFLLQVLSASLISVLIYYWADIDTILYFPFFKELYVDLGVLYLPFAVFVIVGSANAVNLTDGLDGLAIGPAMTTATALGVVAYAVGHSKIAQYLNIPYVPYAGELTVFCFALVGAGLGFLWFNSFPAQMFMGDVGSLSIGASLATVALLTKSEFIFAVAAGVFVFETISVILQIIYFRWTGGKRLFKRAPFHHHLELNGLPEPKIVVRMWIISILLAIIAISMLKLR

[2] = test system: Staphylococcus aureus; test: Antibacterial activity against methicillin resistant Staphylococcus aureus; type: functional, organism-based
[3] = test system: Mycobacterium intracellulare; test: Antibacterial activity against Mycobacterium intracellulare; type: functional
[4] = test system: Staphylococcus aureus; test: Antibacterial activity against Staphylococcus aureus; type: functional
[5] = test system: Escherichia coli; test: Antibacterial activity against Escherichia coli; type: functional
[6] = test system: Mycobacterium avium; test: Antibacterial activity against Mycobacterium avium; type: functional
[7] = test system: Mycobacterium tuberculosis; test: Antibacterial activity against Mycobacterium tuberculosis; type: functional
[8] = test system: Bacillus subtilis; test: Antibacterial activity against Bacillus subtilis; type: functional
[9] = test system: Mycolicibacterium smegmatis; test: Antibacterial activity against Mycobacterium smegmatis; type: functional
[10] = test system: Mycolicibacterium fortuitum; test: Antibacterial activity against Mycobacterium fortuitum; type: functional
[11] = test system: Acinetobacter baumannii; test: Antibacterial activity against Acinetobacter baumannii ATCC 19606; type: functional; conditions: ATCC 19606 = CIP 70.34 = JCM 6841
[12] = test system: Enterococcus faecalis; test: Antibacterial activity against t Enterococcus faecalis after 20 hrs by NCCLS-based two-fold broth dilution method; type: functional; conditions: read-out: MIC
[13] = test system: Enterococcus faecium; test: Antibacterial activity against Enterococcus faecium ATCC 19434; type: functional
[14] = test system: Escherichia coli; test: Antibacterial activity against Escherichia coli ATCC 25922; type: functional
[15] = test system: Enterococcus faecium; test: Antibacterial activity against Enterococcus faecium SR7917 (VRE); type: functional
[16] = test system: Haemophilus influenzae; test: Antibacterial activity against Haemophilus influenzae ATCC 10211; type: functional
[17] = test system: Staphylococcus aureus; test: Antibacterial activity against methicillin resistant Staphylococcus aureus SR3637; type: functional
[18] = test system: Enterococcus faecium; test: Antibacterial activity against t Enterococcus faecium after 20 hrs by NCCLS-based two-fold broth dilution method; type: functional
[19] = test system: Streptococcus pneumoniae; test: Antibacterial activity against Streptococcus pneumoniae; type: functional
[20] = test system: Pseudomonas aeruginosa; test: Antibacterial activity against Pseudomonas aeruginosa PAO1 deltamexB; type: functional
[21] = test system: Escherichia coli; test: Antibacterial activity against Escherichia coli after 20 hrs by NCCLS-based two-fold broth dilution method; type: functional
[22] = test system: Staphylococcus aureus; test: Antibacterial activity against methicillin resistant Staphylococcus aureus after 20 hrs by NCCLS-based two-fold broth dilution method; type: functional; conditions: read-out: MIC
[23] = test system: Haemophilus influenzae; test: Antibacterial activity against Haemophilus influenzae after 20 hrs by NCCLS-based two-fold broth dilution method; type: functional
[24] = test system: Enterococcus faecium; test: Antibacterial activity against t Enterococcus faecium VRE after 20 hrs by NCCLS-based two-fold broth dilution method; type: functional; conditions: read-out: MIC
[25] = test system: Staphylococcus aureus; test: Antibacterial activity against methicillin susceptible Staphylococcus aureus after 20 hrs by NCCLS-based two-fold broth dilution method; type: functional; conditions: read-out: MIC
[26] = test system: Pseudomonas aeruginosa; test: Antibacterial activity against Pseudomonas aeruginosa after 20 hrs by NCCLS-based two-fold broth dilution method; type: functional
[27] = test system: Pseudomonas aeruginosa; test: Antibacterial activity against Pseudomonas aeruginosa YY165; type: functional
[28] = test system: Enterococcus faecalis; test: Antibacterial activity against Enterococcus faecalis ATCC 29212; type: functional
[29] = test system: Staphylococcus aureus; test: Antibacterial activity against methicillin susceptible Staphylococcus aureus ATCC 29213; type: functional
[30] = test system: Enterococcus faecalis; test: Antibacterial activity against t Enterococcus faecalis VRE after 20 hrs by NCCLS-based two-fold broth dilution method; type: functional; conditions: read-out: MIC
[31] = test system: Enterococcus faecalis; test: Antibacterial activity against Enterococcus faecalis SR7914 (VRE); type: functional
[32] = test system: Pseudomonas aeruginosa; test: Antibacterial activity against Pseudomonas aeruginosa ATCC 27853; type: functional
[33] = test system: Escherichia coli; test: Antibacterial activity against Escherichia coli ATCC 8730; type: functional
[34] = test system: Staphylococcus aureus; test: Antibacterial activity against methicillin resistant Staphylococcus aureus ATCC 43300; type: functional
[35] = test system: Citrobacter freundii; test: Antibacterial activity against Citrobacter freundii ATCC 8090; type: functional
[36] = test system: Staphylococcus aureus; test: Antibacterial activity against Staphylococcus aureus ATCC 25923; type: functional
[37] = target: T2, Phospho-N-acetylmuramoyl-pentapeptide-transferase (Bacillus subtilis (strain 168), UniProt Q03521); test: Inhibition of MraY in Bacillus subtilis using UDP-MurNAc-[14C]pentapeptide as substrate by radioactivity scanning assay
T2 sequence (Q03521 whole entry): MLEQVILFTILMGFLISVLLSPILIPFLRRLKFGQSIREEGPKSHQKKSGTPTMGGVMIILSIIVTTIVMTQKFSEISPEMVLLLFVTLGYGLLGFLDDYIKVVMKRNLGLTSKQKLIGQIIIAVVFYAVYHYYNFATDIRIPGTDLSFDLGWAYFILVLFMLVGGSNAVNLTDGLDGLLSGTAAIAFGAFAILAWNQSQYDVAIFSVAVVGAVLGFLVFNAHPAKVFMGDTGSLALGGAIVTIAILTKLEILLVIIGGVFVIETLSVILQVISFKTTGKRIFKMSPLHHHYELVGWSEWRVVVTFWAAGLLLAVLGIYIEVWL

[38] = target: T2, Phospho-N-acetylmuramoyl-pentapeptide-transferase; test: Inhibition of MraY in Bacillus subtilis
[39] = test system: Streptococcus pneumoniae; test: Antibacterial activity against Streptococcus pneumoniae after 20 hrs by NCCLS-based two-fold broth dilution method; type: functional
[40] = target: T3, Phospho-N-acetylmuramoyl-pentapeptide-transferase (Staphylococcus aureus, UniProt P0C1R8); test: Inhibition of MraY in Staphylococcus aureus
T3 sequence (P0C1R8 whole entry): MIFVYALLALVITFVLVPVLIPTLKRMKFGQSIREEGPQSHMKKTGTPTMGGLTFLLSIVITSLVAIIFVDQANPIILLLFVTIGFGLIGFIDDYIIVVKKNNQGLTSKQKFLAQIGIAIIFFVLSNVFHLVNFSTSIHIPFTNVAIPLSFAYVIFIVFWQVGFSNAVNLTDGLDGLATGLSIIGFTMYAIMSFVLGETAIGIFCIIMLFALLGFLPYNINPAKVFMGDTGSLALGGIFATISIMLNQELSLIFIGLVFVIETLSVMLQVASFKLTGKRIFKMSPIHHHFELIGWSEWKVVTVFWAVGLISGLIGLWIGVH

| SMILES | MIC [11] [µg/mL] | MIC [12] [µg/mL] | MIC [13] [µg/mL] | MIC [14] [µg/mL] | MIC [15] [µg/mL] | MIC [16] [µg/mL] | MIC [17] [µg/mL] | MIC [18] [µg/mL] | MIC [19] [µg/mL] | MIC [20] [µg/mL] | MIC [21] [µg/mL] | MIC [22] [µg/mL] | MIC [23] [µg/mL] | MIC [25] [µg/mL] | MIC [26] [µg/mL] | MIC [27] [µg/mL] | MIC [28] [µg/mL] | MIC [29] [µg/mL] | MIC [30] [µg/mL] | MIC [31] [µg/mL] | also measured |
| --- | --- | --- | --- | --- | --- | --- | --- | --- | --- | --- | --- | --- | --- | --- | --- | --- | --- | --- | --- | --- | --- |
| NC[C@H]1O[C@@H](O[C@H]([C@H]2O[C@@H](n3ccc(=O)[nH]c3=O)[C@H](O)[C@@H]2O)n2cc(CCCCCCCCCCOc3ccc(C(=O)c4ccccc4)cc3)nn2)[C@H](O)[C@@H]1O | – | – | – | – | – | – | – | – | – | – | – | – | – | – | – | – | – | – | – | – | IC50 [1]: 25 µM; MIC [2]: 8 µg/mL (≈ 10.3 µM) |
| CO[C@@H]1[C@@H](OC)[C@H](C)O[C@@H](OC(=O)C[C@@H](C)CC(=O)O[C@@H](CCCCCCCCCCC(C)C)CC(=O)O[C@H]2CN(C)[C@@H]([C@H](O[C@@H]3O[C@H](CN)[C@@H](O)[C@H]3O)[C@H]3O[C@@H](n4ccc(=O)[nH]c4=O)[C@H](O)[C@@H]3O)C(=O)N(C)[C@@H]2C(=O)O)[C@@H]1OC | – | – | – | – | – | – | – | – | – | – | – | – | – | – | – | – | – | – | – | – | MIC [3]: 1.56 to 25 µg/mL (≈ 1.36 to 21.8 µM); MIC [4]: 1.56 to 6.25 µg/mL (≈ 1.36 to 5.45 µM); MIC [5]: 100 µg/mL (≈ 87.2 µM); MIC [6]: 6.25 to 50 µg/mL (≈ 5.45 to 43.6 µM); MIC [7]: 3.13 to 12.5 µg/mL (≈ 2.73 to 10.9 µM); MIC [8]: 6.25 to 12.5 µg/mL (≈ 5.45 to 10.9 µM); MIC [9]: 1.56 to 3.13 µg/mL (≈ 1.36 to 2.73 µM); MIC [10]: 50 µg/mL (≈ 43.6 µM) |
| CCCCCCCCCCCCCCCC(=O)N[C@H]1CCN[C@H]([C@H](O[C@@H]2O[C@H](CN)[C@@H](O)[C@H]2O)[C@H]2O[C@@H](n3ccc(=O)[nH]c3=O)[C@H](O)[C@@H]2O)C1 | > 64 | 8 (≈ 11.2 µM) | 8 (≈ 11.2 µM) | 16 (≈ 22.5 µM) | 4 (≈ 5.62 µM) | 32 (≈ 45 µM) | 8 (≈ 11.2 µM) | 8 (≈ 11.2 µM) | > 64 | > 64 | 16 (≈ 22.5 µM) | 8 (≈ 11.2 µM) | 32 (≈ 45 µM) | 8 (≈ 11.2 µM) | 32 (≈ 45 µM) | 32 (≈ 45 µM) | 8 (≈ 11.2 µM) | 8 (≈ 11.2 µM) | 8 (≈ 11.2 µM) | 8 (≈ 11.2 µM) | MIC [24]: 4 µg/mL (≈ 5.62 µM) |
| NC[C@H]1O[C@@H](O[C@@H](c2cn(CCCCCCCCCCOc3ccc(C(=O)c4ccccc4)cc3)nn2)[C@H]2O[C@@H](n3ccc(=O)[nH]c3=O)[C@H](O)[C@@H]2O)[C@H](O)[C@@H]1O | – | – | > 128 | – | – | – | – | – | – | – | – | – | – | – | – | – | – | – | – | – | MIC [32]: > 128 µg/mL; MIC [33]: > 128 µg/mL; MIC [34]: 8 µg/mL (≈ 10.3 µM); MIC [35]: > 128 µg/mL; MIC [36]: 8 µg/mL (≈ 10.3 µM); IC50 [37]: 100 µM; IC50 [38]: 125 µM; IC50 [2]: 100 µM |
| CCCCCCCCC(CCCCCCCC)C(=O)N[C@@H]1CCN[C@@H]([C@H](O[C@@H]2O[C@H](CN)[C@@H](O)[C@H]2O)[C@H]2O[C@@H](n3ccc(=O)[nH]c3=O)[C@H](O)[C@@H]2O)C1 | – | 4 (≈ 5.41 µM) | 8 (≈ 10.8 µM) | – | 8 (≈ 10.8 µM) | 32 (≈ 43.2 µM) | 8 (≈ 10.8 µM) | 8 (≈ 10.8 µM) | – | – | – | 8 (≈ 10.8 µM) | 16 (≈ 21.6 µM) | 4 (≈ 5.41 µM) | 32 (≈ 43.2 µM) | 16 (≈ 21.6 µM) | 4 (≈ 5.41 µM) | 4 (≈ 5.41 µM) | 4 (≈ 5.41 µM) | 4 (≈ 5.41 µM) | MIC [39]: 16 µg/mL (≈ 21.6 µM) |
| CCCCCCCCCCCCCCCC(=O)N[C@@H]1CCN[C@@H]([C@H](O[C@@H]2O[C@H](CN)[C@@H](O)[C@H]2O)[C@H]2O[C@@H](n3ccc(=O)[nH]c3=O)[C@H](O)[C@@H]2O)C1 | > 64 | 4 (≈ 5.62 µM) | 8 (≈ 11.2 µM) | > 64 | 4 (≈ 5.62 µM) | 32 (≈ 45 µM) | 16 (≈ 22.5 µM) | 2 (≈ 2.81 µM) | 64 (≈ 89.9 µM) | > 64 | 4 (≈ 5.62 µM) | 16 (≈ 22.5 µM) | 32 (≈ 45 µM) | 8 (≈ 11.2 µM) | 32 (≈ 45 µM) | 32 (≈ 45 µM) | 4 (≈ 5.62 µM) | 8 (≈ 11.2 µM) | 2 (≈ 2.81 µM) | 2 (≈ 2.81 µM) | MIC [24]: 8 µg/mL (≈ 11.2 µM); IC50 [40]: 24 µM |
